Test system: GL261 tumors
Assay: TUNEL stain of intracranial GL261 glioblastoma tumors
Format: in vivo, C57BL/6 mice
Protocol: The response of cancer cells within the intracranial glioblastoma tumor model, GL261, was also tested in mice. GL261 tumors were implanted into the brains of C57BL/6 mice. After tumor formation (seven days later), mice were treated with GLEEVEC®, 4 Gy or both GLEEVEC® and 4 Gy. Tumors were sectioned and assayed with TUNEL stain to identify apoptotic nuclei. […] The pharmacodynamic response (such as apoptosis) in tumors treated with GLEEVEC® correlated with tumor growth delay.

Structure (SMILES): Cc1ccc(NC(=O)c2ccc(CN3CCN(C)CC3)cc2)cc1Nc1nccc(-c2cccnc2)n1 [GLEEVEC®]
- Glioma nuclei stained positive with TUNEL stain (TKI alone): 5%
- Apoptotic nuclei (TUNEL) (TKI followed by irradiation (4 Gy)): 18%

Reference: patent publication US20100135905A1, “ASSESSMENT OF CANCER SUSCEPTIBILITY TO MOLECULAR TARGETED THERAPY BY USE OF RECOMBINANT PEPTIDES” (priority 2004, published 2010)
